# Results reported in US20240277708A1, “Use of [1,2,4] Triazolo [4,3-B] Pyridazine Derivative For Preventing and Treating Senescence and Senescence-Related Diseases” (The Eighth Affiliated Hospital, Sun Yat-Sen University, priority 2023, published 2024).
# Tests used:
# [1] = tested on: C57BL/c mice, VD3-induced vascular calcification; assay: VD3-induced aortic vascular calcification mouse model, alizarin red staining; format: in vivo; settings: VD3 500 IU/g/day for 2 days, C1632 68 mg/kg twice a week, after 6 days; FIG. 15
# Method: C57BL/c mice were intraperitoneally injected with VD3 at a dose of 500 IU/g/day for 2 consecutive days, and then divided into: (1) Saline group; (3) C1632 group, 10 mice in each group. C1632 was administered twice a week, and CKD mice were treated with C1632 at a dose of 68 mg/kg of body weight each time. After 6 days, the mice were sacrificed, and the aortic blood vessels were dissected for alizarin red staining and hydroxyapatite staining.
# senescent TC-1 cells = assay: T cell killing assay (LDH release) on bleomycin-induced senescent TC-1 cells with immune cells from treated IPF mice; format: cell-based, mouse; settings: ratio 1:50, 4 h
# Method: 1, The senescence of TC-1 cells was induced with bleomycin, and the senescence of TC-1 cells was reflected through SA-β-Gal staining (FIG. 4A).
# 2, T cell killing assay: Bleomycin-induced senescent TC1 cells were plated at 10, 000/well in 96-well plates. The cell culture supernatant was discarded the next day, and then, PBMCS, CD3^+ T cells, and CD8^+ T cells isolated from normal mice, saline treated idiopathic pulmonary fibrosis (IPF) mice and C1632-treated IPF mice were add at a ratio of 1:50. After incubation at 37° C. for 4 h, the supematantwas obtained after centrifugation. LDH enzyme was released from the killed senescent cells, and the killing effect of immune cells on senescent cells was detected by LDH kit. Bleomycin at a dose of 2 mg/kg was sprayed into the lungs of mice to construct IPF mouse model, each group of the above experiments had at least 6 mice.
# Isolation and culture of CD8^+ T cells: Mouse spleens were ground under sterile conditions and filtered through a 200-mesh sieve. The filtered cells were sorted by CD8^+ T cell isolation kit (biolegend). The sorted T cells were cultured in PRMI1640 medium containing 10% FBS, 5 μg/mL anti-mouse CD28 antibody (biolegend), and 10 ng/mL IL-2 in the plates coated overnight with 5 μg/mL CD3 antibody (biolegend) until use.
# [2] = tested on: IPF mice (C57BL/6, bleomycin); assay: Bleomycin-induced idiopathic pulmonary fibrosis (IPF) mouse model; format: in vivo
# Method: A mouse model of […] was constructed by injecting bleomycin (2 mg/kg) into the lungs of the mice through the airway after anesthesia.
# (1) Sacrificing the mice after anesthesia, and weighing the lungs and recording as Mlung; {umlaut over (2)} weighing the empty 1.5 mL centrifuge tube, filling with normal saline and the recording the weight of the centrifuge tube again; calculating the exact volume of the tube (Vtube) based on the weight and density of normal saline; (3) completely immersing the lung tissue in the normal saline of the centrifuge tube, covering the lid of centrifuge tube after removing the air, wiping off the water stains around the tube, and recording the weight as M; (4) calculating the weight of normal saline in the tube: […]; (5) calculating the volume of normal saline in the tube: Vsaline=[…], wherein, ρsaline is the density of normal saline; (6) calculating lung volume: Vlung=Vtube−Vsaline; and (7) calculating lung density: μlung=Mlung/Vlung.
# The lung tissues were fixed by immersion in 4% paraformaldehyde and then gradiently dehydrated in 70% ethanol for 5 hours, 80% ethanol for 1 h, 90% ethanol for 1 h, 95% ethanol for 1 h, absolute ethanol for 1 h, absolute ethanol for 0.5 h, absolute ethanol+TO (1:1) for 1 h, TO for 1 h, TO for 1 h, paraffin (62° C.) for 1 h, paraffin (62° C.) for 1 h, paraffin (62° C.) for 1 h. After dehydration, the lung tissues were wrapped in the wax blocks and sectioned with a thickness of 4 μm. The paraffin sections were baked at 65° C. for 1 h and then exposed to xylene for 5 min, xylene for 5 min, absolute ethanol for 5 min, 95% ethanol for 5 min, 90% ethanol for 5 min, 85% ethanol for 5 min, 75% ethanol for 5 min; then, gently boiled in citric acid solution for 10 min and naturally cooled to room temperature, and exposed to 3% hydrogen peroxide for 10 min. The sections were blocked with goat antiserum for 1 h at room temperature, incubated overnight with primary antibodies against CD45 (abeam), CD3 (abeam) or CD68 (abeam), then washed 3 times with PBS for 5 min each time, and then incubated with immunohistochemical secondary antibodies (Fujian Maixin) at room temperature for 20 min. Then, the sections was subjected to color development for 2 min by using DAB chromogenic kit (Fujian Maixin), rinsed with water to remove DAB, stained with hematoxylin for 2 min and rinsed with running water for 8 minutes to return blue. After drying, the sections were sealed with neutral gum and photographed.
# In this example, the degree of fibrosis in lung tissue was detected through Masson staining, using the Masson trichrome staining kit (Fujian Maixin).
# To investigate whether C1632 can be used for the treatment of IPF, the inventors treated IPF mice with C1632 according to the method of FIG. 9A, and divided the mice into (1) normal mice+normal saline group; (2) normal mice+C1632 group; (3) IPF mice+normal saline group; and (4) IPF mice+C1632 group, each group had at least 4 mice. At the end of the experiment, the lung tissues of the mice were taken and photographed. […] The lungs of the model group are dark red, and some lung lobes are gray white, hardened, and scattered gray white plaques of different sizes could be seen.
# CKD mice (C57BL/6 male) = assay: Purine (AP) feed-induced chronic kidney disease (CKD) mouse model; format: in vivo; settings: 68 mg/kg twice a week
# Text: The protocol for constructing a chronic kidney disease (CKD) mouse model in this example was as follows: 8-week-old C57BL/6 male mice were fed with a feed containing 2‰ purine for 1 month, then, fed with a feedcontaining 1.5‰ purine for 3 months. There were at least 10 mice in each group.
# (§1) The mice were divided into three groups: (1) normal group; (2) AP+Saline group; (3) AP+C1632 group, 10 mice in each group. The CKD mice in group (3) were fed with a feed containing 2‰ AP for 1 month and then treated with C1632. C1632 was administered twice a week at a dose of 68 mg/kg of body weight each time.
# as §1, with “(2) AP+saline” for “(2) AP+Saline”, “group […]” for “group (3)”, “time. During the subsequent 83 days of treatment, the survival of the mice was counted.” for “time.”
# The mice were divided into three groups: (1) normal group; (2) AP+saline group; (3) AP+C1632 group, 10 mice in each group. The CKD mice in group (2) and group (3) were fed with a feed containing 2‰ AP for 1 month and then treated with C1632. C1632 was administered twice a week at a dose of 68 mg/kg of body weight each time. After 3 months, the mice were sacrificed, and the kidneys were removed for Masson staining.
compound,measurement,setting,value
CC(=O)N(C)c1cccc(-c2ccc3nnc(C)n3n2)c1 [C1632],"Aortic vascular calcification, alizarin red staining",[1],significantly inhibits the progression of aortic vascular calcification
same,Killing activity of CD3+ T cells against senescent TC-1 cells (LDH release),"senescent TC-1 cells; CD3+ T cells from C1632-treated IPF mice vs saline-treated IPF mice, FIG. 4C",significantly enhanced killing activity
same,Killing activity of CD8+ T cells against senescent cells (LDH release),"senescent TC-1 cells; CD8+ T cells from C1632-treated IPF mice vs normal mice and saline-treated IPF mice, FIG. 4D",significantly higher
same,Killing activity of PBMC against senescent TC-1 cells (LDH release),"senescent TC-1 cells; PBMC from C1632-treated IPF mice vs saline-treated IPF mice, FIG. 4B",significantly enhanced killing activity
same,Lung density relative to water (lung lobes placed in water),"[2]; IPF mice + C1632, FIG. 9C",less dense than water
same,Lung density (drainage method),"[2]; IPF mice + C1632 vs IPF mice + saline, FIG. 9D",significantly reduced
same,"Lung shape, color and hardness (gross appearance)","[2]; IPF mice + C1632 vs control group, FIG. 9B",closer to those of the control group
same,"Infiltration of CD45 (total immune cells) in lung, IHC","[2]; IPF mice, injection of C1632, FIG. 10A, 10B",significantly reduces the infiltration of immune cells
same,"Infiltration of CD68 (macrophages) in lung, IHC","[2]; IPF mice, injection of C1632, FIG. 10A, 10C",significantly reduces the infiltration
same,"Infiltration of CD3 (T cells) in lung, IHC","[2]; IPF mice, injection of C1632, FIG. 10A, 10D",significantly reduces the infiltration
same,Hydroxyproline content in lung,"[2]; IPF mice, FIG. 9I",significantly inhibit the increase of hydroxyproline
same,"Alveolar architecture and fibrosis areas, H&E and Masson staining","[2]; lungs of C1632-treated IPF mice, FIG. 9E to 9G",more alveolar architecture and less fibrosis areas
same,Mortality of CKD model mice,"CKD mice (C57BL/6 male); 83 days of treatment, FIG. 13",significantly reduces the mortality
same,"Collagen fibers in the kidney, Masson staining (kidney fibrosis)","CKD mice (C57BL/6 male); after 3 months, FIG. 14",significantly inhibits the level of collagen fibers
same,Weight loss in CKD mice,"CKD mice (C57BL/6 male); vs control (saline) mice, FIG. 12",significantly inhibits weight loss
